Here are results for 25 molecules from patent US20230031406A1, “COMPOUNDS AND COMPOSITIONS FOR TREATING CONDITIONS ASSOCIATED WITH NLRP ACTIVITY” (Novartis AG, priority 2018, published 2023).

pIC50: −log10 of the molar value. Like-named read-outs stand apart in the source and are kept apart here. A value given as a limit tells only on which side of the number the result lay.

The test system of this assay is PMA-differentiated THP-1 cells. Put plainly: IL-1β production in PMA-differentiated THP-1 cells stimulated with gramicidin (hTHP-1 assay containing 2% fetal bovine serum; Procedures 1 and 2). Particulars: 2% fetal bovine serum. The class given is cell-based, human. Summed up: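 THP-1 cells were differentiated with PMA (20 ng/ml, 16-18 h), detached, and plated at 50,000 cells/well in RPMI 1640 with 2% FBS. They were pre-treated with compound (0.0017–100 μM, 0.37% DMSO) for 1 h, then stimulated with gramicidin (5 μM) for 2 h. Supernatant IL-1β was measured by HTRF.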

Where [1] appears, read: Table B2, class symbols, read-out: hTHP-1 IC50.
[2] abbreviates: Table B1, class symbols, read-out: Average IC50 of compounds in hTHP-1 assay: hTHP-1 IC50.
The mark [3] stands for this setting: Homo sapiens, THP-1, Table B1, class symbols, read-out: Average IC50 of compounds in hTHP-1 assay: hTHP-1 IC50.
Where [4] appears, read: Table B4, class symbols, read-out: hTHP-1 IC50.
The mark [5] stands for this setting: Homo sapiens, THP-1, Table B2, class symbols, read-out: hTHP-1 IC50.
Where [6] appears, read: Table B3, hTHP-1 assay, class symbols, read-out: IC50.

The pIC50 is the negative decadic logarithm of the IC50, by convention in mol/L. Turning to `CC1(C)CCc2c1nc1c(c2NC(=O)N=S(N)(=O)c2cnc(C(C)(O)CO)s2)CCC1` (single isomer, unassigned) [Compound 201c, (S, S) or (R, S) or (S, R) or (R. R)-2-(1,2-Dihydroxypropan-2-yl)-N′-((3,3-dimethyl-1,2,3,5,6,7-hexahydrodicyclopenta [b,e]pvridin-8-yl)carbamoyl) thiazole-5-sulfonimidamide], the negative-log IC50 (pIC50) under setting [1] was 4.52 to 5.30.

Turning to `CC(C)(O)c1ncc(S(N)(=O)=NC(=O)Nc2cc(C(F)F)nc3c2CCC3)s1` (stereo not shown) [Compound 708], where the note is “Homo sapiens, THP-1, Table B2, numeric bounds, read-out: hTHP-1 IC50”, the pIC50 was less than 4.52.

Consider `CC1CCc2c1nc1c(c2NC(=O)N=S(N)(=O)c2ccn(C(C)C)n2)CCC1` (single isomer, unassigned) [Compound 129ba, (R,S) or (R,R)-1-isopropyl-N′-((3-methyl-1,2,3,5,6,7-hexa-hydrodicyclo-penta[b,e]pyridin-8-yl)carbamoyl)-1H-pyrazole-3-sulfonimidamide], for which, under setting [2], the pIC50 was 5.30 to 6.00.

Consider `CC1CCc2c1nc1c(c2NC(=O)N=S(N)(=O)c2sc(C(C)(C)O)nc2CO)CCC1` (single isomer, unassigned) [Compound 168aa, (S,S) or (S,R)-4-(hydroxymethyl)-2-(2-hydroxypropan-2-yl)-N′-((3-methyl-1,2,3,5,6,7-hexahydrodicyclo-penta[b,e]pyridin-8-yl)carbamoyl)thiazole-5-sulfonimidamide], for which, under setting [2], the pIC50 is 4.52 to 5.30.

Take `CC(O)c1nc(C(C)(C)O)sc1S(=N)(=O)NC(=O)Nc1c2c(nc3c1CCC3)CCC2` (single isomer, unassigned) [Compound 643b, (S, R/S) or (R, R/S)-N-((1,2,3,5,6,7-hexahydrodicyclopenta [b,e]pyridin-8-yl)carbamoyl)-4-(1-hydroxyethyl)-2-(2-hydroxypropan-2-yl) thiazole-5-sulfonimidamide]: under setting [1], the pIC50 is 4.52 to 5.30.

Regarding `NS(=O)(=NC(=O)Nc1c2c(nc(C(F)(F)F)c1C1CC1)CCC2)c1nn(C(F)F)cc1F` (stereo not shown) [Compound 984b], under “Table B3, hTHP-1 assay, class symbols, listed as Compound 984b, read-out: IC50”, the pIC50 is 6.70 to 7.40.

`Cn1nc(C(C)(C)O)cc1S(N)(=O)=NC(=O)Nc1c2c(nc3c1CCC3)CCC2` (stereo not shown) [Compound 166, N′-((1,2,3,5,6,7-hexahydrodicyclopenta[b,e]pyridin-8-yl)carbamoyl)-3-(2-hydroxypropan-2-yl)-1-methyl-1H-pyrazole-5-sulfonimidamide]: the pIC50 under setting [3] is 4.52 to 5.30.

Take `Cc1c(C2(F)CC2)nc2c(c1NC(=O)N=S(N)(=O)c1cc(C(C)(C)O)cs1)CCC2` (stereo not shown) [Example 611, N′-((2-(1-fluorocyclopropyl)-3-methyl-6,7-dihydro-5H-cyclopenta[b]pyridin-4-yl)carbamoyl)-4-(2-hydroxypropan-2-yl)thiophene-2-sulfonimidamide]: the pIC50 (Homo sapiens, THP-1, Table B3, hTHP-1 assay, class symbols, read-out: IC50) was 5.30 to 6.00.

Consider `CC1(C)CCc2c1nc1c(c2NC(=O)N=S(N)(=O)c2sc(C(C)(O)CO)cc2F)CCC1` (single isomer, unassigned) [Compound 640c, (R, S) and (S, S) or (S, R) and (R, R)-5-(1,2-Dihydroxypropan-2-yl)-N′-((3,3-dimethyl-1,2,3,5,6,7-hexahydrodicyclopenta [b,e]pyridin-8-yl)carbamoyl)-3-fluorotliophene-2-sulfonimidamide], for which the pIC50 under setting [1] is 5.30 to 6.00.

For the molecule `CC(C)(O)c1nc(S(N)(=O)=NC(=O)Nc2c3c(nc4c2CCC4)CCC3)cs1` (single isomer, unassigned) [Compound 154b, (S) or (R)-N′-((1,2,3,5,6,7-hexahydrodicyclo-penta[b,e]pyridin-8-yl)carbamoyl)-2-(2-hydroxypropan-2-yl)thiazole-4-sulfonimidamide], the pIC50 (Homo sapiens, THP-1, Table B1, numeric bounds, read-out: Average IC50 of compounds in hTHP-1 assay: hTHP-1 IC50) was less than 4.55.

Consider `NS(=O)(=NC(=O)Nc1c2c(nc3c1CCC3)CCC2)c1nn(C(F)F)cc1F` (stereo not shown) [Example 735, 1-(Difluoromethyl)-4-fluoro-N′-((1,2,3,5,6,7-hexahydrodicyclopenta[b,e]pyridin-8-yl)carbamoyl)-1H-pyrazole-3-sulfonimidamide], for which, for the setting “Homo sapiens, THP-1, Table B4, class symbols, read-out: hTHP-1 IC50”, the pIC50 is 6.00 to 6.70.

As for `CCn1cc(F)c(S(N)(=O)=NC(=O)Nc2c3c(nc(C(F)(F)F)c2-c2ccccc2)CCC3)n1` (single isomer, unassigned) [Example 767, (R) or (S)-1-ethyl-4-fluoro-N′-((3-phenyl-2-(trifluoromethyl)-6,7-dihydro-5H-cyclopenta[b]pyridin-4-yl)carbamoyl)-1H-pyrazole-3-sulfonimidamide], the pIC50 under setting [4] was 7.40 to 8.10.

With `CC(C)(O)c1cc(S(N)(=O)=NC(=O)Nc2c3c(nc4c2CCC4(C)C)CCC3)nn1-c1ccc(F)cc1` (single isomer, unassigned) [Compound 705b, (R) or (S)-N′-((3,3-dimethyl-1,2,3,5,6,7-hexahydrodicyclopenta [b,e]pyridin-8-yl)carbamoyl)-1-(4-fluorophenyl)-5-(2-hydroxypropan-2-yl)-1H-pyrazole-3-sulfonimidamide], the pIC50 under setting [1] was 5.30 to 6.00.

As to `Cc1c(C(F)(F)F)nc2c(c1NC(=O)N=S(N)(=O)c1nn(C(C)C)cc1F)CCC2` (single isomer, unassigned) [Example 789, (R) or (S)-4-fluoro-1-isopropyl-N′-((3-methyl-2-(trifluoromethyl)-6,7-dihydro-5H-cyclopenta[b]pyridin-4-yl)carbamoyl)-1H-pyrazole-3-sulfonimidamide], under setting [4], the pIC50 is 6.70 to 7.40.

As to `Cc1c(C2CC2)nc2c(c1NC(=O)N=S(N)(=O)c1cnn3c1OCCC3)CCC2` (stereo not shown) [Compound 306, N′-((2-cyclopropyl-3-methyl-6,7-dihydro-5H-cyclopenta[b]pyridin-4-yl)carbamoyl)-6,7-dihydro-5H-pyrazolo[5,1-b][1,3]oxazine-3-sulfonimidamide], the negative-log IC50 (pIC50) under setting [5] is 4.52 to 5.30.

With `CC(C)(O)c1sc(S(N)(=O)=NC(=O)Nc2c3c(nc4c2CCC4)CCC3)cc1F` (stereo not shown) [Compound 177, 4-fluoro-N′-((1,2,3,5,6,7-hexahydrodicyclopenta[b,e]pyridin-8-yl)carbamoyl)-5-(2-hydroxypropan-2-yl)thiophene-2-sulfonimidamide], the pIC50 under setting [3] was 4.52 to 5.30.

In the case of `CCn1ccc(S(N)(=O)=NC(=O)Nc2c3c(nc4c2CCC42CC2)CCC3)n1` (single isomer, unassigned) [Example 687, (R) or (S)-1-Ethyl-N′-((1′,5′,6′,7′-tetrahydro-2′H-spiro[cyclopropane-1,3′-dicyclopenta[b,e]pyridin]-8′-yl)carbamoyl)-1H-pyrazole-3-sulfonimidamide], the pIC50 under setting [6] was 6.00 to 6.70.

As for `CC1(C)CCc2c1nc1c(c2NC(=O)N=S(N)(=O)c2nn(C(F)F)cc2F)CCC1` (single isomer, unassigned) [Example 721, (R) or (S)-1-(difluoromethyl)-N′-((3,3-dimethyl-1,2,3,5,6,7-hexahydrodicyclopenta[b,e]pyridin-8-yl)carbamoyl)-4-fluoro-1H-pyrazole-3-sulfonimidamide], the pIC50 under setting [6] was 6.70 to 7.40.

On to `CCn1cc(F)c(S(N)(=O)=NC(=O)Nc2c3c(nc(C(F)(F)F)c2-c2ccc(F)cc2)CCC3)n1` (single isomer, unassigned) [Example 787, (R) or (S)-1-ethyl-4-fluoro-N′-((3-(4-fluorophenyl)-2-(trifluoromethyl)-6,7-dihydro-5H-cyclopenta[b]pyridin-4-yl)carbamoyl)-1H-pyrazole-3-sulfonimidamide], for which, under setting [4], the pIC50 is 7.40 to 8.10.

Regarding `CC(=O)c1csc(S(N)(=O)=NC(=O)Nc2c3c(nc4c2CC[C@H]4C)CCC3)c1` (single isomer, unassigned) [Example 666, (S) or (R)-4-acetyl-N′-(((R)-3-methyl-1,2,3,5,6,7-hexahydrodicyclopenta[b,e]pyridin-8-yl)carbamoyl)thiophene-2-sulfonimidamide], the pIC50 under setting [6] was 4.52 to 5.30.

Regarding `CC1CCc2c1nc1c(c2NC(=O)N=S(N)(=O)c2cc(C(C)(C)O)cs2)CCC1C` (single isomer, unassigned) [Compound 131c, (S,R,S) and (S,S,R) or (S,R,R) or (S,S,S)-N′-((3,5-dimethyl-1,2,3,5,6,7-hexa-hydrodicyclo-penta[b,e]pyridin-8-yl)carbamoyl)-4-(2-hy-droxypropan-2-yl)thiophene-2-sulfonimidamide], the pIC50 under setting [2] was 4.52 to 5.30.

As for `CC(C)c1ncc(F)c(C(C)C)c1NC(=O)N=S(N)(=O)c1cc(C(C)(C)O)cs1` (stereo not shown) [Compound 148, N′-((5-fluoro-2,4-diisopropylpyridin-3-yl)carbamoyl)-4-(2-hydroxypropan-2-yl)thiophene-2-sulfonimidamide], the pIC50 under setting [3] was 6.70 to 7.40.

Regarding `Cc1c(C(F)(F)F)nc2c(c1NC(=O)N=S(N)(=O)c1nn(C(F)F)cc1F)CCC2` (single isomer, unassigned) [Example 562], the pIC50 under setting [6] was 6.00 to 6.70.

With `CC(C)n1cc(Cl)c(S(N)(=O)=NC(=O)Nc2c3c(nc4c2CCC4)CCC3)n1` (single isomer, unassigned) [Compound 694b, (R) or (S)-4-Chloro-N′-((1,2,3,5,6,7-hexahydrodicyclopenta [b,e]pyridin-8-yl)carbamoyl)-1-isopropyl-1H-pyrazole-3-sulfonimidamide], the pIC50 under setting [5] is 5.30 to 6.00.

For the molecule `CCC1CCc2c1nc1c(c2NC(=O)N=S(N)(=O)c2ccn(C(F)F)n2)CCC1` (single isomer, unassigned) [Compound 668b, (R, R) or (R, S) or (S, R) or (S, S)-1-(Difluoromethyl)-N′-((3-ethyl-1,2,3,5,6,7-hexahydrodicyclopenta [b,e]pyridin-8-yl)carbamoyl)-1H-pyrazole-3-sulfonimidamide], the pIC50 under setting [5] was 4.52 to 5.30.
